Source: ChEMBL document CHEMBL3868608, “Discovery of 1,3-diethyl-7-methyl-8-(phenoxymethyl)-xanthine derivatives as novel adenosine A1 and A2A receptor antagonists” (Bioorg Med Chem Lett, 2016)
pKi: −log10 of the molar value.

Columns and labels:
Adenosine receptor A1 [1] = target: T1, Adenosine receptor A1 (Rattus norvegicus, UniProt P25099); assay: Displacement of [3H]DPCPX from adenosine receptor A1 in Sprague-Dawley rat whole brain cell membranes after 60 mins by liquid scintillation counting
T1 sequence (P25099 whole entry): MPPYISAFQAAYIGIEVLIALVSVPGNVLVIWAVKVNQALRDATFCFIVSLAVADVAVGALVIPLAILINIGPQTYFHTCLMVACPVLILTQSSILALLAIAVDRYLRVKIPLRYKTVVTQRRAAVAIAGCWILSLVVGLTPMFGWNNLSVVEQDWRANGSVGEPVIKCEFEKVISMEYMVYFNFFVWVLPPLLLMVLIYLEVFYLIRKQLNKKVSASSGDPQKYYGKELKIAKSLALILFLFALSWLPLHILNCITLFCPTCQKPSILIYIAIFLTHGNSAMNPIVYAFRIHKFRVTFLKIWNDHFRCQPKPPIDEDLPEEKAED

Adenosine receptor A2a [2] = target: T2, Adenosine receptor A2a (Rattus norvegicus, UniProt P30543); assay: Displacement of [3H]NECA from adenosine receptor A2A in Sprague-Dawley rat striatal membranes after 60 mins by liquid scintillation counting; set-up: species or system Striatum, Membrane
Adenosine receptor A1 [3] = target: T1, Adenosine receptor A1; assay: Displacement of [3H]DPCPX from adenosine receptor A1 in Sprague-Dawley rat whole brain membranes after 60 mins in presence of GTP by liquid scintillation counting method; set-up: species or system Membrane
brain = assay: Selectivity index, ratio of Ki for adenosine receptor A2A in Sprague-Dawley rat striatal membranes to Ki for adenosine receptor A1 in Sprague-Dawley rat whole brain cell membranes; format: cell-based
Adenosine receptor A2a [4] = target: T2, Adenosine receptor A2a; assay: Displacement of [3H]NECA from adenosine receptor A2A in rat striatal membranes

T2 sequence (P30543 whole entry): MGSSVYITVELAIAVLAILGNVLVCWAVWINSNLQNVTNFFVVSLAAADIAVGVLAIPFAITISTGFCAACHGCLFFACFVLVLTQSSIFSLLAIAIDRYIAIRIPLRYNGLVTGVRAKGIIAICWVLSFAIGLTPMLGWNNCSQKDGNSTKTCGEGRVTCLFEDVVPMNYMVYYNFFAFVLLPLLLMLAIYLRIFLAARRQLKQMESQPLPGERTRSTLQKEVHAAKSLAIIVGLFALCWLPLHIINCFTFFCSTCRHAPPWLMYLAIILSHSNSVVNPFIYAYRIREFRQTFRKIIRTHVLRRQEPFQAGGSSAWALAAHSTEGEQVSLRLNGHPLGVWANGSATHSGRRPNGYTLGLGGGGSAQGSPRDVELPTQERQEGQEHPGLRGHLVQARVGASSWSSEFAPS

Row | SMILES | pKi (Adenosine receptor A1 [1]) | pKi (Adenosine receptor A2a [2]) | pKi (Adenosine receptor A1 [3]) | Ratio Ki (brain) | pKi (Adenosine receptor A2a [4])
1 | CCn1c(=O)c2c(nc(COc3ccc(Br)cc3)n2C)n(CC)c1=O | 6.58 | 5.87 | 6.57 |  | 
2 | Cn1c(=O)c2c(nc(COc3ccc(Cl)cc3)n2C)n(C)c1=O | 5.25 | 6.03 |  | 0.2 | 
3 | Cc1ccc(OCc2nc3c(c(=O)n(C)c(=O)n3C)n2C)cc1 | 5.17 | 5.44 |  | 0.5 | 
4 | COc1ccc(OCc2nc3c(c(=O)n(C)c(=O)n3C)n2C)cc1 | 5.33 | 5.62 |  | 0.5 | 
5 | CCn1c(=O)c2c(nc(COc3ccccc3)n2C)n(CC)c1=O |  |  | 6.05 |  | 
6 | Cn1c(=O)c2c(nc(COc3ccc(F)cc3)n2C)n(C)c1=O | 5.04 | 5.59 |  | 0.3 | 
7 | CCn1c(=O)c2c(nc(COc3ccc(Cl)cc3)n2C)n(CC)c1=O | 6.01 | 5.98 |  | 1.1 | 
8 | CCn1c(=O)c2c(nc(COc3ccc(OC)cc3)n2C)n(CC)c1=O | 5.91 | 6.63 |  |  | 6.63
9 | CCn1c(=O)c2c(ncn2C)n(CC)c1=O | 5.25 | 5.57 |  | 0.5 | 
10 | CCn1c(=O)c2c(nc(COc3ccc(C)cc3)n2C)n(CC)c1=O | 5.85 | 5.89 |  | 0.9 | 
11 | Cn1c(=O)c2c(nc(COc3ccc(Br)cc3)n2C)n(C)c1=O | 5.43 | 5.76 |  | 0.5 | 
12 | CCn1c(=O)c2c(nc(COc3ccc(F)cc3)n2C)n(CC)c1=O | 5.91 | 6.08 |  | 0.7 | 
